Laboratory results from patent publication US6849612B2, “Oligonucleotide modulation of cell adhesion” (ISIS Pharmaceuticals, Inc., priority 1993, dated 2005).
Strand notation (5' to 3'): a small letter for the sugar, then the base; units joined by * are phosphorothioate-linked, units joined directly phosphodiester-linked; [ ] holds rarer units or linkages, { } end groups; capitals alone tell only the bases. d = 2'-deoxy (DNA)

What was measured:
ELAM-1 = experiment: ELISA of ELAM-1 expression in TNF-stimulated HUVEC; assay type: cell-based, human; conditions: for ELAM-1 expression (% of control) / IC50: HUVEC; for ELAM-1 expression (% of control): TNF-α […] 4 hours; for IC50: TNF-α, read-out: IC50 for inhibition of ELAM-1 expression (asterisk); for inhibition of ELAM-1 expression: TNF-treated HUVEC
Procedure: (§1) Primary human umbilical vein endothelial (HUVEC) cells, passage 2 to 5, were plated in 96-well plates and allowed to reach confluence. Cells were washed three times with Opti-MEM (GIBCO, Grand Island N.Y.). Cells were treated with increasing concentrations of oligonucleotide diluted in Opti-MEM containing 10 μg/ml DOTMA solution (Bethesda Research Labs, Bethesda, Md.) for 4 hours at 370C. The medium was removed and replaced with EGM-UV (Clonetics, San Diego Calif.) plus oligonucleotide. Tumor necrosis factor α was added to the medium (2.5 ng/ml) and the cells were incubated an additional 4 hours at 37° C.
(§2) ELAM-1 expression was determined by ELISA. Cells were gently washed three times with Dulbecco's phosphate-buffered saline (D-PBS) prewarmed to 37° C. Cells were fixed with 95% ethanol at 4° C. for 20 minutes, washed three times with D-PBS and blocked with 2% BSA in D-PBS. Cells were incubated with ELAM-1 monoclonal antibody BBA-1 (R&D Systems, Minneapolis Minn.) diluted to 0.5 μg/ml in D-PBS containing 2% BSA for 1 hour at 37° C. Cells were washed three times with D-PBS and the bound ELAM-1 antibody detected with biotinylated goat anti-mouse secondary antibody followed by β-galactosidase-conjugated streptavidin as described in Example 1.
ELISA screening of additional antisense oligonucleotides for activity against ELAM-1 gene expression Inhibition of ELAM-1 expression by eighteen antisense phosphorothioate oligonucleotides was determined using the ELISA assay as described in Example 12.

VCAM-1 = experiment: ELISA of VCAM-1 expression in TNF-stimulated HUVEC; assay type: cell-based, human; conditions: for VCAM-1 EXPRESSION 30 nM oligo (VCAM-1 expression is given as % of control) / VCAM-1 EXPRESSION 50 nM oligo (VCAM-1 expression is given as % of control): TNF-α 16 hours; for IC50: TNF-α, read-out: IC50 for inhibition of VCAM-1 expression (asterisk)
Procedure: as §1, §2
Inhibition of VCAM-1 expression by fifteen antisense phosphorothioate oligonucleotides was determined using the ELISA assay approximately as described in Example 12, except that cells were stimulated with TNF-àfor 16 hours and VCAM-1 expression was detected by a VCAM-1 specific monoclonal antibody (R & D Systems, Minneapolis, Minn.) used at 0.5 μg/ml.

Row | Substance | ELAM-1 expression (% of control) (ELAM-1; 30 nM oligo) | ELAM-1 expression (% of control) (ELAM-1; 50 nM oligo) | IC50 (ELAM-1) | inhibition of ELAM-1 expression (ELAM-1) | VCAM-1 EXPRESSION 30 nM oligo (VCAM-1 expression is given as % of control) (VCAM-1) | VCAM-1 EXPRESSION 50 nM oligo (VCAM-1 expression is given as % of control) (VCAM-1) | IC50 (VCAM-1)
1 | ISIS 2670: P=S, human ELAM-1 3′-UTR 3717-3736, SEQ ID NO 29, ACCACACTGGTATTTCACAC (antisense dA*dC*dC*dA*dC*dA*dC*dT*dG*dG*dT*dA*dT*dT*dT*dC*dA*dC*dA*dC) | 72.2 % of control | 67.2 % of control |  |  |  |  | 
2 | ISIS 2673: P=S, human ELAM-1 3′-UTR 2656-2676, SEQ ID NO 30, GTATGGAAGATTATAATATAT (antisense dG*dT*dA*dT*dG*dG*dA*dA*dG*dA*dT*dT*dA*dT*dA*dA*dT*dA*dT*dA*dT) | 58.9 % of control | 53.8 % of control |  |  |  |  | 
3 | ISIS 2674: P=S, human ELAM-1 3′-UTR 2617-2637, SEQ ID NO 31, CACAATCCTTAAGAACTCTTT (antisense dC*dA*dC*dA*dA*dT*dC*dC*dT*dT*dA*dA*dG*dA*dA*dC*dT*dC*dT*dT*dT) | 33.5 % of control | 28.1 % of control | ≤ 50 nM |  |  |  | 
4 | ISIS 2678: P=S, human ELAM-1 3′-UTR 3557-3576, SEQ ID NO 32, ACCTCTGCTGTTCTGATCCT (antisense dA*dC*dC*dT*dC*dT*dG*dC*dT*dG*dT*dT*dC*dT*dG*dA*dT*dC*dC*dT) | 24.9 % of control | 15.3 % of control | ≤ 50 nM |  |  |  | 
5 | ISIS 2679: P=S, human ELAM-1 5′-UTR 40-59, SEQ ID NO 33, CTGCTGCCTCTGTCTCAGGT (antisense dC*dT*dG*dC*dT*dG*dC*dC*dT*dC*dT*dG*dT*dC*dT*dC*dA*dG*dG*dT) | 6.4 % of control | 6.0 % of control | ≤ 50 nM | most potent |  |  | 
6 | ISIS 2683: P=S, human ELAM-1 AUG 143-163, SEQ ID NO 35, AATCATGACTTCAAGAGTTCT (antisense dA*dA*dT*dC*dA*dT*dG*dA*dC*dT*dT*dC*dA*dA*dG*dA*dG*dT*dT*dC*dT) | 47.9 % of control | 48.5 % of control | ≤ 50 nM |  |  |  | 
7 | ISIS 2686: P=S, human ELAM-1 AUG 148-168, SEQ ID NO 36, TGAAGCAATCATGACTTCAAG (antisense dT*dG*dA*dA*dG*dC*dA*dA*dT*dC*dA*dT*dG*dA*dC*dT*dT*dC*dA*dA*dG) | 51.1 % of control | 46.9 % of control | ≤ 50 nM |  |  |  | 
8 | ISIS 2687: P=S, human ELAM-1 5′-UTR 17-36, SEQ ID NO 37, TATAGGAGTTTTGATGTGAA (antisense dT*dA*dT*dA*dG*dG*dA*dG*dT*dT*dT*dT*dG*dA*dT*dG*dT*dG*dA*dA) | 91.1 % of control | 73.8 % of control |  | did not show significant activity |  |  | 
9 | ISIS 2694: P=S, human ELAM-1 3′-UTR 2933-2953, SEQ ID NO 39, GACAATATACAAACCTTCCAT (antisense dG*dA*dC*dA*dA*dT*dA*dT*dA*dC*dA*dA*dA*dC*dC*dT*dT*dC*dC*dA*dT) | 72.0 % of control | 64.6 % of control |  |  |  |  | 
10 | ISIS 3791: phosphorothioate, human VCAM-1 5′UTR 38-58, SEQ ID NO 61, CCTGGGAGGGTATTCAGCT (antisense dG*dC*dC*dT*dG*dG*dG*dA*dG*dG*dG*dT*dA*dT*dT*dC*dA*dG*dC*dT) |  |  |  |  | 92.6 % of control | 58.0 % of control | 
11 | ISIS 3792: phosphorothioate, human VCAM-1 AUG 110-129, SEQ ID NO 63, GGCATTTTAAGTTGCTGTCG (DNA, all phosphorothioate, methylation of C not given here) |  |  |  |  | 68.7 % of control | 33.7 % of control | ≤ 50 nM
12 | ISIS 3794: phosphorothioate, human VCAM-1 TERMIN. 2344-2362, SEQ ID NO 69, TGAACATATCAAGCATTAGC (DNA, all phosphorothioate, methylation of C not given here) |  |  |  |  | 75.3 % of control | 52.6 % of control | 
13 | ISIS 3800: phosphorothioate, human VCAM-1 3′-UTR 2620-2639, SEQ ID NO 70, GCAATCTTGCTATGGCATAA (DNA, all phosphorothioate, methylation of C not given here) |  |  |  |  | 64.4 % of control | 47.7 % of control | ≤ 50 nM
14 | ISIS 3801: phosphorothioate, human VCAM-1 3′-UTR 2872-2892, SEQ ID NO 50, AACCCAGTGCTCCCTTTGCT (DNA, all phosphorothioate, methylation of C not given here) |  |  |  |  | 36.5 % of control | 21.3 % of control | ≤ 50 nM
15 | ISIS 3805: phosphorothioate, human VCAM-1 3′-UTR 2826-2845, SEQ ID NO 71, CCCGGCATCTTTACAAAACC (DNA, all phosphorothioate, methylation of C not given here) |  |  |  |  | 7.7 % of control | 44.9 % of control | ≤ 50 nM
16 | ISIS 4719: phosphorothioate, human ELAM-1 3′-UTR 2993-3012, SEQ ID NO 58, ACGTTTGGCCTCATGGAAGT (antisense dA*dC*dG*dT*dT*dT*dG*dG*dC*dC*dT*dC*dA*dT*dG*dG*dA*dA*dG*dT) | 36.8 % of control | 34.7 % of control | ≤ 50 nM |  |  |  | 
17 | ISIS 4720: phosphorothioate, human ELAM-1 3′-UTR 3093-3112, SEQ ID NO 59, GGAATGCAAAGCACATCCAT (antisense dG*dG*dA*dA*dT*dG*dC*dA*dA*dA*dG*dC*dA*dC*dA*dT*dC*dC*dA*dT) | 63.5 % of control | 70.6 % of control |  |  |  |  | 
18 | ISIS 4729: phosphorothioate, human ELAM-1 3′-UTR 2063-2082, SEQ ID NO 57, GGGCCAGAGACCCGAGGAGA (antisense dG*dG*dG*dC*dC*dA*dG*dA*dG*dA*dC*dC*dC*dG*dA*dG*dG*dA*dG*dA) | 49.4 % of control | 46.3 % of control | ≤ 50 nM |  |  |  | 
19 | ISIS 4730: phosphorothioate, human ELAM-1 I/E 3′UTR 2006-2025, SEQ ID NO 56, TCCCCAGATGCACCTGTTT (antisense dT*dT*dC*dC*dC*dC*dA*dG*dA*dT*dG*dC*dA*dC*dC*dT*dG*dT*dT*dT) | 14.1 % of control | 2.3 % of control | ≤ 50 nM |  |  |  | 
20 | ISIS 4732: phosphorothioate, human ELAM-1 Coding 1936-1955, SEQ ID NO 55, CTGATTCAAGGCTTTGGCAG (antisense dC*dT*dG*dA*dT*dT*dC*dA*dA*dG*dG*dC*dT*dT*dT*dG*dG*dC*dA*dG) | 68.5 % of control | 55.3 % of control |  |  |  |  | 
21 | ISIS 4756: phosphorothioate, human ELAM-1 I/E 177-196, SEQ ID NO 54, CCAAAGTGAGAGCTGAGAGA (antisense dC*dC*dA*dA*dA*dG*dT*dG*dA*dG*dA*dG*dC*dT*dG*dA*dG*dA*dG*dA) | 53.9 % of control | 35.7 % of control | ≤ 50 nM |  |  |  | 
22 | ISIS 4759: phosphorothioate, human ELAM-1 5′-UTR 64-83, SEQ ID NO 53, ACAGGATCTCTCAGGTGGGT (antisense dA*dC*dA*dG*dG*dA*dT*dC*dT*dC*dT*dC*dA*dG*dG*dT*dG*dG*dG*dT) | 30.0 % of control | 20.2 % of control | ≤ 50 nM |  |  |  | 
23 | ISIS 4764: phosphorothioate, human ELAM-1 5′-UTR 1-19, SEQ ID NO 52, GAAGTCAGCCAAGAACAGCT (antisense dG*dA*dA*dG*dT*dC*dA*dG*dC*dC*dA*dA*dG*dA*dA*dC*dA*dG*dC*dT) | 70.2 % of control | 50.2 % of control | ≤ 50 nM |  |  |  | 
